Data from publication PMC4895043, “Biological Activities of Aerial Parts Extracts of Euphorbia characias” (BioMed Research International, 2016).

Molecular target: T1, HIV-1 RT (HIV-1 M:B_HXB2R, UniProt P04585)
T1 construct: gene gag-pol; mature RT cut from Gag-Pol polyprotein
Assay: RNase H inhibition assay
Format: biochemical
Conditions: RNase H activity; read-out: IC50 (μg/mL)^∗ / HIV-1 / RNase H
Source text: RNase H inhibition assay on HIV-1 RT

RDS1759
IC50: 7.1 ± 0.5 µM
